# Patent US20240182526A1, “COMPOSITIONS AND METHODS FOR MODULTING INFLAMMATORY AND DEGENERATIVE DISORDER” (University of Southern California, priority 2021, published 2024)
# “Also recorded” adds a separate entry of the source.
# Columns and labels:
# pSRC = test: Western blot of pSRC in pig articular chondrocytes; assay type: cell-based; conditions: pig articular chondrocytes, OSM, 4 and 24 hours
# Procedure: (§1) For standard western blot, treated and non-treated cells were lysed in RIPA Lysis and Extraction Buffer (Pierce, Rockford, IL) containing protease inhibitors (Pierce) followed by sonication with a 15-second pulse at a power output of 2 using the VirSonic 100 (SP Industries Company, Warminster, PA). Protein concentrations were determined by BCA protein assay (Pierce). Proteins were resolved with SDS-PAGE utilizing 4-15% Mini-PROTEAN TGX Precast Gels and transferred to Trans-Blot Turbo Transfer Packs with a 0.2-μm pore-size nitrocellulose membrane. The SDS-PAGE running buffer, 4-15% Mini-PROTEAN TGX Precast Gels, Trans-Blot Turbo Transfer Packs with a 0.2-μm pore-size nitrocellulose membrane was purchased from Biorad (Hercules, CA). Nitrocellulose membranes were blocked in 5% nonfat milk in 0.05% (v/v) Tween 20 (PBST) (Corning, Manassas, VA). Membranes were then incubated with primary antibodies p-gp130 Y814 (Evseenko lab, AbClonal), p-AKT (cat #4060, Cell Signaling), p-ERK 1/2 (cat #9106, Cell Signaling), p-Y416-SRC (cat #1246F, Novus Biologicals), p-gp130 (cat #1453R, Bioss USA) and p-NFκBp65 (cat #8242, Cell Signaling), and/or YAP1 (cat #4912, Cell Signaling). Histone H3 (cat #9515, Cell Signaling) was used as loading control. After washing in PBS containing 0.05% (v/v) Tween 20 (PBST), membranes were incubated with rabbit (cat #31460, Thermo Scientific) or mouse IgG-HRP (cat #31430, Thermo Scientific) secondary antibodies. After washing, membranes were developed with the Clarity Western ECL Blotting Substrate (Hercules, CA). Quantification of blots was performed using ImageJ 1.44 followed by Prism9 for analysis.
# The studies delineate that gp130 Y814 regulates SRC downstream signaling; since SRC is known to associate with gp130, it was hypothesized that gp130 and SRC are capable of physically interacting on Y814 and hindering this interaction will prevent SRC from signaling. In order to impede this interaction, experiments were performed using an innovative peptide library screen with short and overlapping peptides mimicking the motif of gp130 around Y814 that were individually tested for pSRC downregulation; these peptides ranged from 4-15 amino acids. The peptides contained a protein sequence stretch of consecutive amino acids surrounding gp130 Y814 residue. To test their efficacy, pig articular chondrocytes were stimulated with or without OSM in presence or absence of the peptides followed by co-immunoprecipitation to determine interaction and western blot detecting pSRC activity. […] Due to sequence specificity, the peptide is capable of discriminating among other gp130 regions serving as a competitive inhibitor.
# [1] = 90-day pharmacokinetic study after intra-articular injection in Beagles; assay type: in vivo; conditions: Beagle
# Procedure: Pharmacokinetic assessment of R805. Pharmacokinetics were conducted in a canine model for over 90 days. Purpose-bred beagles with intact stifles were injected intra-articularly with 500 μL of physiological saline containing 0.25% carboxymethyl cellulose (CMC) and either 1 μg or 100 ng of […] (n=4 each). Synovial fluid and plasma were collected at d0, d3, d7, d14, d21, d31, d60 and d90 and analyzed by LC-MS/MS. Doses of 10 μg, 1 μg and 0.1 μg of R805 were utilized for the main experiment.
# YAP1 = test: Western blot of YAP1 in LIF-treated pig articular chondrocytes; assay type: cell-based; conditions: 4 and 24 hours
# Procedure: (§2) For standard western blot, treated and non-treated cells were lysed in RIPA Lysis and Extraction Buffer (Pierce, Rockford, IL) containing protease inhibitors (Pierce) followed by sonication with a 15-second pulse at a power output of 2 using the VirSonic 100 (SP Industries Company, Warminster, PA). Protein concentrations were determined by BCA protein assay (Pierce). Proteins were resolved with SDS-PAGE utilizing 4-15% Mini-PROTEAN TGX Precast Gels and transferred to Trans-Blot Turbo Transfer Packs with a 0.2-μm pore-size nitrocellulose membrane. The SDS-PAGE running buffer, 4-15% Mini-PROTEAN TGX Precast Gels, Trans-Blot Turbo Transfer Packs with a 0.2-μm pore-size nitrocellulose membrane was purchased from Biorad (Hercules, CA). Nitrocellulose membranes were blocked in 5% nonfat milk in 0.05% (v/v) Tween 20 (PBST) (Corning, Manassas, VA). […] Quantification of blots was performed using ImageJ 1.44 followed by Prism9 for analysis.
# (§3) Experiments were performed to determine whether R805 is inclined to shift the signaling outputs downstream of gp130 promoting differential regulation similar to genetic ablation of Y814. As a readout, protein levels of phosphorylated SRC, MAPK (ERK 1/2) and NF-κB were measured in response to OSM while STAT3 and YAP1 levels were evaluated in response to LIF.
# gp130 pY814 = target: T1, gp130 pY814 (Sus scrofa, UniProt A0A4X1SIN4); test: Western blot of gp130 pY814 in OSM-stimulated pig articular chondrocytes; assay type: cell-based; conditions: with OSM, 4 and 24 hours
# T1 construct: endogenous in cells; host or cells: pig articular chondrocytes (Yucatan minipig)
# T1 sequence (A0A4X1SIN4 23-917): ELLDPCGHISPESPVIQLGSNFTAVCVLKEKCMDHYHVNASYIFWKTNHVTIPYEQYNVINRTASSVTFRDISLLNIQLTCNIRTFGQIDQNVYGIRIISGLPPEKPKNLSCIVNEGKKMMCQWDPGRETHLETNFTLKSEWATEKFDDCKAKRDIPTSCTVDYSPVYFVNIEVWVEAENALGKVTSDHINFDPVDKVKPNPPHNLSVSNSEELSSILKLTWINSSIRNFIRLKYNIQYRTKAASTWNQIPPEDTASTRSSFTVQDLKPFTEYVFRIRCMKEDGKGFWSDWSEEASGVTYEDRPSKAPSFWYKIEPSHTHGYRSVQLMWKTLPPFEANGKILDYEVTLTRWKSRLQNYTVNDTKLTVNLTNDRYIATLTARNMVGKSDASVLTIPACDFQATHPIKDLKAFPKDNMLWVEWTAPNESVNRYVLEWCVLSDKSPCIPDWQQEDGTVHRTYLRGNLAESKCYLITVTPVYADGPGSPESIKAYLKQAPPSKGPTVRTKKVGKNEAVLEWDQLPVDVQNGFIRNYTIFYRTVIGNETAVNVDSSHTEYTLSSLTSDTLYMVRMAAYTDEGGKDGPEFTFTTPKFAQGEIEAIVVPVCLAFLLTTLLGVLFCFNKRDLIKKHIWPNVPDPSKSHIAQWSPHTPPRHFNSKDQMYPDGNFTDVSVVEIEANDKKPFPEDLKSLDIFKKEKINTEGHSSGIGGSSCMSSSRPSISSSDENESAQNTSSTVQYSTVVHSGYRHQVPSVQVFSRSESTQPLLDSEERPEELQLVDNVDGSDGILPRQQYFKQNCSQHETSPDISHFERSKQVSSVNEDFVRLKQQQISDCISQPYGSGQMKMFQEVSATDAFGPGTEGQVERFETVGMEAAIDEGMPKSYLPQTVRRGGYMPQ
# Procedure: as §1, with “After washing in PBS containing 0.05% (v/v) Tween 20 (PBST), membranes were incubated with rabbit (cat #31460, Thermo Scientific) or mouse IgG-HRP (cat #31430, Thermo Scientific) secondary antibodies. After washing, membranes were developed with the Clarity Western ECL Blotting Substrate (Hercules, CA).” left out
# [2] = test system: bearded dragon (Pogona vitticeps) amputated tail; test: Lizard tail healing model; assay type: in vivo; conditions: 14 days post-amputation
# Procedure: Lizard Tail Healing Model. Captive bred and raised bearded dragon lizards (Pogona vitticeps) were maintained at 25.5° C. with 65% humidity on a 12 hr light/12 hr dark schedule with UVB lamp (Zoo Med) treatment during daylight hours. Care and experimental use of lizards was conducted in accordance with Institutional Animal Care and Use Committee (IACUC). Lizard tails were amputated halfway along lengths with scalpels To systemically deplete macrophage populations, lizards received intraperitoneal (IP) injections of L-α-phoshatidylcholine/cholesterol liposomes containing clodronate (0.125 mg/g) as previously described (Londono et al. J Immunol Regen Med. 2020). Control animals were treated with liposomes containing PBS instead of clodronate. Lizards were treated with R805 drug via daily direct injection (1 pmol drug) into amputated tail stumps. Lizard tail samples were collected 14 days following original tail amputation. Collected tail samples were photographed using an Olympus SZX16 stereo microscope. Images were uploaded in ImageJ (NIH, Bethesda MD) and quantified using the measure command. For labeling of proliferating cell populations with 5-ethynyl-2′-deoxyuridine (EdU) (ThermoFisher Scientific), animals received IP injections of EdU (50 mg/kg) four hours prior to sample collection. Samples to be analyzed via histology were fixed overnight in 4% paraformaldehyde, decalcified for 3 weeks in 10% EDTA (pH 7.4), equilibrated to 30% sucrose, embedded in optimal cutting temperature compound (OCT, Tissue-Tek), crypsectioned at 16 μm thickness, mounted on glass slides, and stained with 4′,6-diamidino-2-phenylindole (DAPI). Samples were stained with Masson's trichrome (American Mastertech) according to the manufacturer's instructions or immunostained for CTSK (Abcam antibody ab19027, used at 1:1000). Images were captured with an Olympus CKX41 microscope outfitted with a Keyence BZ-X800 microscope, and the areas of EdU signal were quantified with ImageJ. Statistical analysis was performed using Prism 7 with one or two-way ANOVA with pairwise Tukey's multiple comparison test for data with multiple groups. A p-value of <0.05 was deemed to be statistically significant. All values and graphs are shown as mean±SD.
# pSTAT3 = test: Western blot of pSTAT3 in LIF-treated pig articular chondrocytes; assay type: cell-based; conditions: 4 and 24 hours
# Procedure: as §2, §3
# c-MYC = test: Western blot of c-MYC in pig articular chondrocytes; assay type: cell-based
compound,measurement,setting,value
Cc1ccc(-c2csc(NC(=O)c3ccccn3)n2)cc1 [Peptide R805],protein levels of pSRC after OSM stimulation,pSRC,markedly suppressed; also recorded: prevents pro-inflammatory signaling in OSM-stimulated pig articular chondrocytes
same,time that IC50 concentrations of R805 were maintained in the joint,[1]; 1 μg intra-articular injection,3 weeks
same,detection in systemic circulation,"[1]; intra-articular injection, 90-day study",never detected in systemic circulation; also recorded: not detected in systemic circulation
same,YAP1 downstream of LIF,YAP1,minimal inhibitory effect
same,OSM-stimulated activation of gp130 Y814 (protein expression of gp130 pY814),gp130 pY814,prevents Y814 activation in response to IL-6 cytokines; also recorded: selectively inhibited OSM-stimulated activation of Y814
same,OSM-stimulated activation of gp130 Y814 (protein expression of gp130 pY814),gp130 pY814; listed as CX-011,potent inhibitor of OSM-stimulated activation of gp130 Y814
same,CTSK+ macrophage recruitment to amputation site,[2],exhibited CTSK+ macrophage populations that extended into new tissue areas distal to amputation planes
same,proliferating EdU+ cells,[2],significantly higher numbers of proliferating EdU+ wound epithelium and periosteal cells
same,tail tissue regrowth under macrophage depletion,[2]; R805 co-treated with clodronate liposomes,co-treatment with clodronate liposomes inhibited R805-induced tissue regrowth
same,"tail tissue regeneration (gross morphology, Masson's trichrome)",[2]; daily direct injection into amputated tail stump,resulted in tissue regeneration as evidenced by blastema-like structures; also recorded: enhances lizard tail regeneration in a macrophage-dependent manner
same,pSTAT3 downstream of LIF,pSTAT3,minimal inhibitory effect; also recorded: does not affect pro-regenerative signaling downstream of gp130
same,protein levels of c-MYC (MYC signaling),c-MYC,does not activate MYC signaling
